PubChem BioAssay AID330 (DTP/NCI, 2004)
Where “and” joins values, the source holds several entries; their conditions need not be identical. Identical values can stand only once. Inconclusive results and toxic doses are left out. How the source made its calls: active means survival T/C of 150% or more; inactive means T/C below 125% in these data.

Test system: P388 leukemia ip, CD2F1 mice, survival T/C
Experiment: NCI In Vivo Anticancer Drug Screen. Data for tumor model P388 Leukemia (intraperitoneal) in CD2F1 (CDF1) mice
Details: endpoint: median survival time, higher = longer survival
Outline: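 Mice carrying the transplanted tumor received test compound or vehicle. Survival was recorded in each group, and the value is the treated-group measurement divided by that of the vehicle-treated control group.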

[1] = dose: 25.0 mg/kg/injection, schedule: Q01DX005 (ip), vehicle: suspension in saline
[2] = dose: 50.0 mg/kg/injection, schedule: Q01DX005 (ip), vehicle: suspension in saline
[3] = dose: 50.0 mg/kg/injection, schedule: Q01DX009 (ip), vehicle: other
[4] = dose: 100.0 mg/kg/injection, schedule: Q01DX009 (ip), vehicle: other
[5] = dose: 200.0 mg/kg/injection, schedule: Q01DX009 (ip), vehicle: other
[6] = dose: 50.0 mg/kg/injection, schedule: Q01DX005 (ip), vehicle: saline with Tween-80
[7] = dose: 100.0 mg/kg/injection, schedule: Q01DX005 (ip), vehicle: saline with Tween-80
[8] = dose: 200.0 mg/kg/injection, schedule: Q01DX005 (ip), vehicle: saline with Tween-80
[9] = dose: 50.0 mg/kg/injection, schedule: Q01DX009 (ip), vehicle: saline with Tween-80
[10] = dose: 100.0 mg/kg/injection, schedule: Q01DX009 (ip), vehicle: saline with Tween-80
[11] = dose: 200.0 mg/kg/injection, schedule: Q01DX009 (ip), vehicle: saline with Tween-80
[12] = dose: 60.0 mg/kg/injection, schedule: Q01DX005 (ip), vehicle: saline with Tween-80
[13] = dose: 120.0 mg/kg/injection, schedule: Q01DX005 (ip), vehicle: saline with Tween-80
[14] = dose: 50.0 mg/kg/injection, schedule: Q01DX009 (ip), vehicle: saline
[15] = dose: 100.0 mg/kg/injection, schedule: Q01DX009 (ip), vehicle: saline
[16] = dose: 200.0 mg/kg/injection, schedule: Q01DX009 (ip), vehicle: saline
[17] = dose: 50.0 mg/kg/injection, schedule: Q01DX009 (ip), vehicle: suspension in saline
[18] = dose: 50.0 mg/kg/injection, schedule: Q01DX005 (ip), vehicle: Klucel (hydroxypropylcellulose) (HPC)
[19] = dose: 100.0 mg/kg/injection, schedule: Q01DX005 (ip), vehicle: Klucel (hydroxypropylcellulose) (HPC)
[20] = dose: 200.0 mg/kg/injection, schedule: Q01DX005 (ip), vehicle: Klucel (hydroxypropylcellulose) (HPC)

Measured: T/C

Cc1noc2nc(-c3ccccc3)cc(N3CCN(C)CC3)c12
inactive: dose: 12.5 mg/kg/injection, schedule: Q01DX005 (ip), vehicle: other 107 % of control | dose: 25.0 mg/kg/injection, schedule: Q01DX005 (ip), vehicle: other 97 % of control | dose: 50.0 mg/kg/injection, schedule: Q01DX005 (ip), vehicle: other 97 % of control | dose: 100.0 mg/kg/injection, schedule: Q01DX005 (ip), vehicle: other 101 % of control | dose: 200.0 mg/kg/injection, schedule: Q01DX005 (ip), vehicle: other 104 % of control

N#CCCCOCCOCCOCC(O)C(O)COCCOCCOCCCC#N (stereo not drawn)
inactive: [1] 95 % of control | [2] 99 % of control | dose: 100.0 mg/kg/injection, schedule: Q01DX005 (ip), vehicle: suspension in saline 96 % of control | dose: 200.0 mg/kg/injection, schedule: Q01DX005 (ip), vehicle: suspension in saline 98 % of control

COCCCn1nnc2ccccc2c1=O
inactive: dose: 25.0 mg/kg/injection, schedule: Q01DX009 (ip), vehicle: other 105 % of control | [3] 100 % of control | [4] 104 % of control | [5] 106 % of control

Nc1ccc(-c2csc(Nc3ccnc4cc(Cl)ccc34)n2)cc1
inactive: [6] 99 % of control | [7] 93 % of control | [8] 88 % of control

O=C(/C=C/c1ccc([N+](=O)[O-])cc1)NN=C(c1ccccc1)c1ccccc1
inactive: [9] 106 % of control and 96 % of control | [10] 99 % of control and 91 % of control | [11] 98 % of control | dose: 400.0 mg/kg/injection, schedule: Q01DX009 (ip), vehicle: saline with Tween-80 99 % of control

Cc1ccc(NC(=O)/C=C2\CONC(c3ccccc3)=N2)cc1
inactive: [12] 91 % of control | [13] 91 % of control

OCC12COCN1COC2
inactive: [14] 106 % of control and 92 % of control | [15] 106 % of control and 111 % of control | [16] 108 % of control and 118 % of control | dose: 400.0 mg/kg/injection, schedule: Q01DX009 (ip), vehicle: saline 123 % of control

S=P1(CNc2ccccc2)CN(c2ccccc2)CN(c2ccccc2)C1
inactive: dose: 50.0 mg/kg/injection, schedule: Q01DX001 (ip), vehicle: saline with Tween-80 100 % of control | dose: 100.0 mg/kg/injection, schedule: Q01DX001 (ip), vehicle: saline with Tween-80 95 % of control | dose: 200.0 mg/kg/injection, schedule: Q01DX001 (ip), vehicle: saline with Tween-80 100 % of control

C[N+]1(C)CCC(=O)C(c2ccccc2)C1 (stereo not drawn)
inactive: dose: 50.0 mg/kg/injection, schedule: Q04DX003 (ip), vehicle: saline 113 % of control | dose: 100.0 mg/kg/injection, schedule: Q04DX003 (ip), vehicle: saline 113 % of control

CC(C)(C)CC(C)(C)c1ccc(OCc2ccc(C(F)(F)F)cc2)cc1
inactive: [9] 100 % of control | [10] 96 % of control | [11] 100 % of control

CN(C)CCC(=O)C1CC1
inactive: dose: 12.5 mg/kg/injection, schedule: Q01DX005 (ip), vehicle: suspension in saline 94 % of control | [1] 97 % of control | [6] 92 % of control | [2] 100 % of control

CC/C(=N/NS(=O)(=O)c1ccc(C)cc1)c1ccc(Cl)cc1
inactive: [14] 97 % of control | [15] 92 % of control | [16] 99 % of control

CCCCCN(C)/N=N/c1nc[nH]c1C(N)=O
inactive: dose: 100.0 mg/kg/injection, schedule: Q04DX003 (ip), vehicle: saline with Tween-80 120 % of control | dose: 200.0 mg/kg/injection, schedule: Q04DX003 (ip), vehicle: saline with Tween-80 110 % of control | dose: 600.0 mg/kg/injection, schedule: Q04DX003 (ip), vehicle: saline with Tween-80 90 % of control

O=[N+]([O-])c1ccc(Sc2ncnc3c2ncn3C2OC(CO)C(O)C2O)c2nonc12 (stereo not drawn)
inactive: dose: 12.5 mg/kg/injection, schedule: Q01DX009 (ip), vehicle: suspension in saline 119 % of control | [17] 103 % of control and 122 % of control

Fc1ccc(NC(=S)SCc2ccc(Cl)c(Cl)c2)cc1
inactive: [17] 90 % of control | dose: 100.0 mg/kg/injection, schedule: Q01DX009 (ip), vehicle: suspension in saline 90 % of control | dose: 200.0 mg/kg/injection, schedule: Q01DX009 (ip), vehicle: suspension in saline 102 % of control

Cn1c(=O)c2c(nnc(-c3ccc(Cl)c(Cl)c3)[n+]2[O-])n(C)c1=O
inactive: dose: 25.0 mg/kg/injection, schedule: Q01DX001 (ip), vehicle: Klucel (hydroxypropylcellulose) (HPC) 103 % of control

O=C(NC1CCCN1C(=O)/C=C/c1ccccc1)NC1CCCN1C(=O)/C=C/c1ccccc1 (stereo not drawn)
inactive: [12] 100 % of control | [13] 88 % of control | dose: 240.0 mg/kg/injection, schedule: Q01DX005 (ip), vehicle: saline with Tween-80 101 % of control

COP(=O)(CC(=O)OC(CC(=O)OCc1ccccc1)C(=O)OCc1ccccc1)OC (stereo not drawn)
inactive: [6] 98 % of control | [7] 92 % of control | [8] 93 % of control

NS(=O)(=O)c1ccc(NCc2cnc3ccccc3n2)cc1
inactive: dose: 5.0 mg/kg/injection, schedule: Q01DX009 (ip), vehicle: saline 87 % of control | dose: 10.0 mg/kg/injection, schedule: Q01DX009 (ip), vehicle: saline 94 % of control | dose: 20.0 mg/kg/injection, schedule: Q01DX009 (ip), vehicle: saline 94 % of control

COc1ccc(C(=O)/C(C)=C(/C)N)c(OCc2ccccc2)c1OC
inactive: [18] 104 % of control | [19] 94 % of control | [20] 105 % of control

NC(=O)C(CC(=O)O)NC(=O)OCc1ccccc1 (stereo not drawn)
inactive: dose: 4.0 mg/kg/injection, schedule: Q01DX009 (ip), vehicle: other 100 % of control | dose: 8.0 mg/kg/injection, schedule: Q01DX009 (ip), vehicle: other 114 % of control | dose: 16.0 mg/kg/injection, schedule: Q01DX009 (ip), vehicle: other 101 % of control | dose: 32.0 mg/kg/injection, schedule: Q01DX009 (ip), vehicle: other 98 % of control | [3] 96 % of control | dose: 64.0 mg/kg/injection, schedule: Q01DX009 (ip), vehicle: other 91 % of control | [4] 90 % of control | dose: 150.0 mg/kg/injection, schedule: Q01DX009 (ip), vehicle: other 109 % of control | [5] 105 % of control | dose: 400.0 mg/kg/injection, schedule: Q01DX009 (ip), vehicle: other 113 % of control

Nc1ccc(-c2ccc(N=C(/C=N/O)NO)cc2)cc1
inactive: [18] 102 % of control | [19] 100 % of control | [20] 94 % of control

CCN(CC)CCOC(=O)/C=C/c1ccccc1
inactive: dose: 60.0 mg/kg/injection, schedule: Q01DX005 (ip), vehicle: saline 106 % of control | dose: 120.0 mg/kg/injection, schedule: Q01DX005 (ip), vehicle: saline 107 % of control | dose: 240.0 mg/kg/injection, schedule: Q01DX005 (ip), vehicle: saline 102 % of control

Oc1cc(O)c(-c2c(O)cc(O)cc2O)c(O)c1 (tested in a mixture with another compound)
inactive: dose: 1.56 mg/kg/injection, schedule: Q01DX005 (ip), vehicle: saline 97 % of control | dose: 3.12 mg/kg/injection, schedule: Q01DX005 (ip), vehicle: saline 106 % of control | dose: 6.25 mg/kg/injection, schedule: Q01DX005 (ip), vehicle: saline 111 % of control | dose: 12.5 mg/kg/injection, schedule: Q01DX005 (ip), vehicle: saline 101 % of control | dose: 25.0 mg/kg/injection, schedule: Q01DX005 (ip), vehicle: saline 96 % of control | dose: 50.0 mg/kg/injection, schedule: Q01DX005 (ip), vehicle: saline 108 % of control

CCOC(=O)/C=C(/C)SC1=CC(=O)c2ccccc2C1=O
inactive: dose: 1.56 mg/kg/injection, schedule: Q01DX009 (ip), vehicle: saline 91 % of control | dose: 6.25 mg/kg/injection, schedule: Q01DX009 (ip), vehicle: saline 98 % of control | dose: 12.5 mg/kg/injection, schedule: Q01DX009 (ip), vehicle: saline with Tween-80 119 % of control | dose: 12.5 mg/kg/injection, schedule: Q01DX009 (ip), vehicle: saline 100 % of control
